Assay results as given in patent US20230233569A1 (Revolution Medicines, Inc., priority 2020, published 2023).

Experiments:
NRAS WT = NRAS WT (Homo sapiens, UniProt P01111+P62937); experiment: Disruption of BRAF RBD interaction with Ras (FRET / MOA assay, with Cyclophilin A); type: biochemical; settings: NRAS WT; read-out: NRAS WT FRET data IC50
Procedure, shortened: (§1)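 IC50 reflects compound-driven Ras:Cyclophilin A ternary complex displacing BRAF RBD, read as lowered TR-FRET ratio relative to DMSO after Eu anti-His (10 nM) and APC anti-GST (50 nM) detection for 1.5 h. Prior incubation 3 h, 25° C, with 12.5 nM GMPPNP-loaded Ras, 50 nM BRAF RBD, 25 μM Cyclophilin A; top compound 30 μM.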

NRAS Q61R = NRAS Q61R (Homo sapiens, UniProt P01111+P62937, Q61R); experiment: as above; type: biochemical; settings: NRAS Q61R; read-out: NRAS Q61R FRET data IC50
Chain of NRAS Q61R (P01111 whole entry Q61R): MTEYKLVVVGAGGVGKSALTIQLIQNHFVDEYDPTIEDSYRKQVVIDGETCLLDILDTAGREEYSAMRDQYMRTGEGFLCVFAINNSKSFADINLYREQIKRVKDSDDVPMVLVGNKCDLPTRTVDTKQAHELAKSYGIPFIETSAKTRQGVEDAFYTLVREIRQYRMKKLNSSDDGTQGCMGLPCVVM
Chain of NRAS Q61R (P62937 whole entry): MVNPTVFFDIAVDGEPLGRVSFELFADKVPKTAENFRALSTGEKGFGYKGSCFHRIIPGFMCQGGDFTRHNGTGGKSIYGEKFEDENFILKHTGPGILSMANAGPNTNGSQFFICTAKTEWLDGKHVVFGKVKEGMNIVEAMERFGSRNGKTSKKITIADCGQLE
Procedure, shortened: as §1

KRAS Q61H = KRAS Q61H (Homo sapiens, UniProt P01116+P62937, Q61H); experiment: as above; type: biochemical; settings: KRAS Q61H; read-out: KRAS Q61H FRET data IC50
Chain of KRAS Q61H (P01116 1-169 isoform P01116-2 Q61H limits assumed): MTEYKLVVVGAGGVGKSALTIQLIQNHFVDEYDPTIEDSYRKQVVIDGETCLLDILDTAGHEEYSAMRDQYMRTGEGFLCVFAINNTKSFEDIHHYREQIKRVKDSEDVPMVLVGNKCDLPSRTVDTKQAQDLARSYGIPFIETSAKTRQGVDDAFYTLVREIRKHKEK
Chain of KRAS Q61H (P62937 whole entry): as the sequence (P62937 whole entry) above
Procedure, shortened: as §1

NRAS Q61K = NRAS Q61K (Homo sapiens, UniProt P01111+P62937, Q61K); experiment: as above; type: biochemical; settings: NRAS Q61K; read-out: NRAS Q61K FRET data IC50
Chain of NRAS Q61K (P01111 whole entry Q61K): as the sequence (P01111 whole entry Q61R) above, with R61K counted along it
Chain of NRAS Q61K (P62937 whole entry): as the sequence (P62937 whole entry) above
Procedure, shortened: as §1

Capan-1 (K-Ras G12V) = experiment: CellTiter-Glo cell viability assay, 5-day treatment; type: cell-based; settings: Homo sapiens, CAPAN-1, 120 h, 5-day treatment; read-out: Capan-1 Cell Viability assay data (K-Ras G12V, IC50)
Procedure, shortened: (§2)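 Compounds were dispensed directly onto seeded cells and incubated for 5 days, then plates were equilibrated to room temperature for about 30 minutes before luminescence reading. Signals were expressed as percent of the mean DMSO control and fitted with a four-parameter logistic curve.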

NCI-H358 (K-Ras G12C) = experiment: as above; type: cell-based; settings: Homo sapiens, NCI-H358, 120 h, 5-day treatment; read-out: H358 Cell Viability assay data (K-Ras G12C, IC50)
Procedure, shortened: as §2

KRAS G12S = KRAS G12S (Homo sapiens, UniProt P01116+P62937, G12S); experiment: Disruption of BRAF RBD interaction with Ras (FRET / MOA assay, with Cyclophilin A); type: biochemical; settings: read-out: KRAS G12S FRET data, IC50
Chain of KRAS G12S (P01116 1-169 isoform P01116-2 G12S limits assumed): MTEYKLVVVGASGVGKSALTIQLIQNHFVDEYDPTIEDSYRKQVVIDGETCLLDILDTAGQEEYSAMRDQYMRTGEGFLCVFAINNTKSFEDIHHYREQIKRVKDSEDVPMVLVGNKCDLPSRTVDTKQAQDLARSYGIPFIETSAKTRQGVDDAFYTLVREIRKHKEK
Chain of KRAS G12S (P62937 whole entry): as the sequence (P62937 whole entry) above
Procedure, shortened: (§3)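 TR-FRET: nucleotide-loaded K-Ras mutant or WT with Cyclophilin A and BRAF RBD, compound 10-point 3-fold from 30 μM final, 3 h at 25° C, then anti-His Eu (10 nM) and anti-GST APC (50 nM) for 1.5 h. Decreased FRET ratio versus DMSO gives IC50.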

KRAS G13C = KRAS G13C (Homo sapiens, UniProt P01116+P62937, G13C); experiment: as above; type: biochemical; settings: read-out: KRAS G13C FRET data, IC50
Chain of KRAS G13C (P01116 1-169 isoform P01116-2 G13C): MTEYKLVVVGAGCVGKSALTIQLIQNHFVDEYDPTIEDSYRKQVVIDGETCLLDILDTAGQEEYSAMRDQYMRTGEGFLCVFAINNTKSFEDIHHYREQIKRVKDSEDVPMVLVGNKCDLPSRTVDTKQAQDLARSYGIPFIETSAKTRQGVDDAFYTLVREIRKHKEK
Chain of KRAS G13C (P62937 whole entry): as the sequence (P62937 whole entry) above
Procedure, shortened: as §3

KRAS WT = KRAS WT (Homo sapiens, UniProt P01116+P62937); experiment: as above; type: biochemical; settings: KRAS WT; read-out: KRAS WT FRET data IC50
Chain of KRAS WT (P01116 1-169 isoform P01116-2 limits assumed): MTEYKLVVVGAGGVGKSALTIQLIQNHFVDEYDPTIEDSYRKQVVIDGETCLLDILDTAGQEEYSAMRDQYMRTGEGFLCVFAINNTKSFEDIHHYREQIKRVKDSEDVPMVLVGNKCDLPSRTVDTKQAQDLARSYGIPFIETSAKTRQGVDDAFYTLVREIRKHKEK
Chain of KRAS WT (P62937 whole entry): as the sequence (P62937 whole entry) above
Procedure, shortened: as §3

KRAS G12D = KRAS G12D (Homo sapiens, UniProt P01116+P62937, G12D); experiment: as above; type: biochemical; settings: read-out: KRAS G12D FRET data, IC50
Chain of KRAS G12D (P01116 1-169 isoform P01116-2 G12D limits assumed): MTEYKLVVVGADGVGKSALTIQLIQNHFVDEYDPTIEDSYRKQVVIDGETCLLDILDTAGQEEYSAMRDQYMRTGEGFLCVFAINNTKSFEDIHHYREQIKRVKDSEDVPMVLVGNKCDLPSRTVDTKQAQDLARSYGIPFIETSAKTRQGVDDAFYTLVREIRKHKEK
Chain of KRAS G12D (P62937 whole entry): as the sequence (P62937 whole entry) above
Procedure, shortened: as §3

NRAS G12C = NRAS G12C (Homo sapiens, UniProt P01111+P62937, G12C); experiment: as above; type: biochemical; settings: NRAS G12C; read-out: NRAS G12C FRET data IC50
Chain of NRAS G12C (P01111 whole entry G12C): as the sequence (P01111 whole entry Q61R) above, with G12C, R61Q counted along it
Chain of NRAS G12C (P62937 whole entry): as the sequence (P62937 whole entry) above

KRAS G12C = KRAS G12C (Homo sapiens, UniProt P01116+P62937, G12C); experiment: as above; type: biochemical; settings: read-out: KRAS G12C FRET data, IC50
Chain of KRAS G12C (P01116 1-169 isoform P01116-2 G12C): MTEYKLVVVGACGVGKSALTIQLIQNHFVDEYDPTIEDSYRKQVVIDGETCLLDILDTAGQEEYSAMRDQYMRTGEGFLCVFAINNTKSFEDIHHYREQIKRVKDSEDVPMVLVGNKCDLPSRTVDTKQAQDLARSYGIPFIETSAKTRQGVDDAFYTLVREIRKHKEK
Chain of KRAS G12C (P62937 whole entry): as the sequence (P62937 whole entry) above
Procedure, shortened: as §3

KRAS G12V = KRAS G12V (Homo sapiens, UniProt P01116+P62937, G12V); experiment: as above; type: biochemical; settings: KRAS G12V; read-out: KRAS G12V FRET data IC50
Chain of KRAS G12V (P01116 1-169 isoform P01116-2 G12V limits assumed): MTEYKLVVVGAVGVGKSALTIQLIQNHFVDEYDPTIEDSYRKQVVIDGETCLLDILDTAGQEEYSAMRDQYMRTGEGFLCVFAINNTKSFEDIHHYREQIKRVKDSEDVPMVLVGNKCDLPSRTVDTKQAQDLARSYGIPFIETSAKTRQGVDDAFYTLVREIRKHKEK
Chain of KRAS G12V (P62937 whole entry): as the sequence (P62937 whole entry) above
Procedure, shortened: as §3

KRAS G13D = KRAS G13D (Homo sapiens, UniProt P01116+P62937, G13D); experiment: as above; type: biochemical; settings: KRAS G13D; read-out: KRAS G13D FRET data IC50
Chain of KRAS G13D (P01116 1-169 isoform P01116-2 G13D limits assumed): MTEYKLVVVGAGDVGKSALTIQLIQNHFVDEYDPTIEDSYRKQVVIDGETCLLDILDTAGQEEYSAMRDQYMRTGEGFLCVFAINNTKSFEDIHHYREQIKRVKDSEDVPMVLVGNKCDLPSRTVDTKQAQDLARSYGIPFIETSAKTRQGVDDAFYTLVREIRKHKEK
Chain of KRAS G13D (P62937 whole entry): as the sequence (P62937 whole entry) above
Procedure, shortened: as §3

Chain of NRAS WT (P01111 whole entry): as the sequence (P01111 whole entry Q61R) above, with R61Q counted along it
Chain of NRAS WT (P62937 whole entry): as the sequence (P62937 whole entry) above

Structure (SMILES)	IC50 (NRAS WT) [nM]	IC50 (NRAS Q61R) [nM]	IC50 (KRAS Q61H) [nM]	IC50 (NRAS Q61K) [nM]	IC50 (NCI-H358 (K-Ras G12C)) [nM]	IC50 (KRAS G12S) [nM]	IC50 (KRAS G13C) [nM]	IC50 (KRAS WT) [nM]	IC50 (KRAS G12D) [nM]	IC50 (NRAS G12C) [nM]	IC50 (KRAS G12C) [nM]	IC50 (KRAS G12V) [nM]	IC50 (KRAS G13D) [nM]	IC50 (Capan-1 (K-Ras G12V)) [nM]
CCn1c(-c2cccnc2[C@H](C)OC)c2c3cc(ccc31)-c1csc(n1)C[C@H](NC(=O)[C@H](C(C)C)N(C)C(=O)N1CC(CN(C)C)(OC)C1)C(=O)N1CCC[C@H](N1)C(=O)OCC(C)(C)C2 (atropisomer, axis not shown) [Example A575]	1000 to 10000	1000 to 10000	1000 to 10000	1000 to 10000	100 to 1000	1000 to 10000	1000 to 10000	1000 to 10000	1000 to 10000	1000 to 10000	1000 to 10000	1000 to 10000	1000 to 10000	100 to 1000
CCn1c(-c2cc(N3CCN(C)CC3)cnc2[C@H](C)OC)c2c3cc(ccc31)-c1csc(n1)C[C@H](NC(=O)[C@H](C(C)C)N(C)C(=O)[C@@H]1OCC[C@@H]1c1ccccc1)C(=O)N1CCC[C@H](N1)C(=O)OCC(C)(C)C2 (atropisomer, axis not shown) [Example A583]	100 to 1000	10 to 100	10 to 100	100 to 1000	< 10	100 to 1000	100 to 1000	100 to 1000	100 to 1000	10 to 100	10 to 100	100 to 1000	100 to 1000	< 10
CCn1c(-c2cccnc2[C@H](C)OC)c2c3cc(ccc31)-c1csc(n1)C[C@H](NC(=O)[C@H](C(C)C)N(C)C(=O)N1CCN(C(=O)[C@H]3CCCN3C)CC1)C(=O)N1CCC[C@H](N1)C(=O)OCC(C)(C)C2 (atropisomer, axis not shown) [Example A595]	100 to 1000	100 to 1000	10 to 100	10 to 100	10 to 100	100 to 1000	100 to 1000	100 to 1000	100 to 1000	10 to 100	10 to 100	100 to 1000	100 to 1000	100 to 1000
CCn1c(-c2cccnc2[C@H](C)OC)c2c3cc(ccc31)-c1csc(n1)C[C@H](NC(=O)[C@H](C(C)C)N(C)C(=O)N1CCC13CCOCC3)C(=O)N1CCC[C@H](N1)C(=O)OCC(C)(C)C2 (atropisomer, axis not shown) [Example A601]	100 to 1000	10 to 100	10 to 100	10 to 100	10 to 100	100 to 1000	100 to 1000	100 to 1000	100 to 1000	10 to 100	10 to 100	100 to 1000	100 to 1000	10 to 100
CCn1c(-c2cccnc2[C@H](C)OC)c2c3cc(ccc31)-c1csc(n1)C[C@H](NC(=O)[C@H](C(C)C)N(C)C(=O)N1CC(C3CN(C)C3)C1)C(=O)N1CCC[C@H](N1)C(=O)OCC(C)(C)C2 (atropisomer, axis not shown) [Example A608]	100 to 1000	100 to 1000	10 to 100	10 to 100	100 to 1000	100 to 1000	100 to 1000	100 to 1000	100 to 1000	10 to 100	10 to 100	100 to 1000	100 to 1000	10 to 100

Now from value to compound, other results behind:

IC50 (NRAS WT) [nM]	IC50 (NRAS Q61R) [nM]	IC50 (KRAS Q61H) [nM]	IC50 (NRAS Q61K) [nM]	IC50 (NCI-H358 (K-Ras G12C)) [nM]	IC50 (KRAS G12S) [nM]	IC50 (KRAS G13C) [nM]	IC50 (KRAS WT) [nM]	IC50 (KRAS G12D) [nM]	IC50 (NRAS G12C) [nM]	IC50 (KRAS G12C) [nM]	IC50 (KRAS G12V) [nM]	IC50 (KRAS G13D) [nM]	Structure (SMILES)	IC50 (Capan-1 (K-Ras G12V)) [nM]
< 10	< 10	< 10	10 to 100	< 10	< 10	10 to 100	10 to 100	10 to 100	< 10	< 10	10 to 100	10 to 100	CCn1c(-c2cc(C3CCN(C)CC3)cnc2[C@H](C)OC)c2c3cc(ccc31)-c1cc(O)cc(c1)C[C@H](NC(=O)[C@H](C(C)C)N(C)C(=O)[C@@H]1OCC[C@@H]1c1ccccc1)C(=O)N1CCC[C@H](N1)C(=O)OCC(C)(C)C2 (atropisomer, axis not shown) [Example A577]	< 10
10 to 100	10 to 100	10 to 100	10 to 100	10 to 100	10 to 100	10 to 100	10 to 100	100 to 1000	< 10	10 to 100	10 to 100	10 to 100	CCn1c(-c2cccnc2[C@H](C)OC)c2c3cc(ccc31)-c1csc(n1)C[C@H](NC(=O)[C@H](CC1CC1)N(C)C(=O)N1CC(OC)C1)C(=O)N1CCC[C@H](N1)C(=O)OCC(C)(C)C2 (atropisomer, axis not shown) [Example A578]	100 to 1000
100 to 1000	100 to 1000	100 to 1000	10 to 100	100 to 1000	100 to 1000	100 to 1000	100 to 1000	100 to 1000	100 to 1000	100 to 1000	100 to 1000	100 to 1000	CCn1c(-c2cccnc2[C@H](C)OC)c2c3cc(ccc31)-c1csc(n1)C[C@H](NC(=O)[C@H](C(C)C)N(C)C(=O)N1C[C@H](OC)[C@@H](N)C1)C(=O)N1CCC[C@H](N1)C(=O)OCC(C)(C)C2 (atropisomer, axis not shown) [Example A580]	100 to 1000
< 10	< 10	< 10	10 to 100	< 10	< 10	< 10	< 10	10 to 100	< 10	< 10	10 to 100	10 to 100	CCn1c(-c2cc(N3CCN(C)CC3)cnc2[C@H](C)OC)c2c3cc(ccc31)-c1cc(O)cc(c1)C[C@H](NC(=O)[C@H](C(C)C)N(C)C(=O)[C@@H]1OCC[C@@H]1c1ccccc1)C(=O)N1CCC[C@H](N1)C(=O)OCC(C)(C)C2 (atropisomer, axis not shown) [Example A594]	< 10
10 to 100	100 to 1000	< 10	100 to 1000	10 to 100	10 to 100	10 to 100	10 to 100	10 to 100	10 to 100	10 to 100	10 to 100	10 to 100	CCn1c(-c2cccnc2[C@H](C)OC)c2c3cc(ccc31)-c1cc(O)cc(c1)C[C@H](NC(=O)[C@H](C(C)C)N(C)C(=O)[C@@H]1CCN[C@@H]1c1ccccc1)C(=O)N1CCC[C@H](N1)C(=O)OCC(C)(C)C2 (atropisomer, axis not shown) [Example A605]	100 to 1000
10 to 100	10 to 100	10 to 100	10 to 100	< 10	10 to 100	100 to 1000	10 to 100	100 to 1000	10 to 100	10 to 100	100 to 1000	100 to 1000	CCn1c(-c2cccnc2[C@H](C)OC)c2c3cc(ccc31)-c1csc(n1)C[C@H](NC(=O)[C@H](C(C)C)N(C)C(=O)N1CCN(C(=O)C3COC3)CC1)C(=O)N1CCC[C@H](N1)C(=O)OCC(C)(C)C2 (atropisomer, axis not shown) [Example A606]	10 to 100
